{
  "source": "patent US20070059371A1",
  "about": "“Nanoparticulate ebastine formulations” (Elan Pharma International, Limited, priority 2005, published 2007)",
  "origin": "cited, not measured here",
  "key": {"[1]": {"conditions": "mainly as conjugated metabolites"}},
  "data": [
    {"compound": "CC(C)(C)c1ccc(C(=O)CCCN2CCC(OC(c3ccccc3)c3ccccc3)CC2)cc1", "note": "[Ebastine, 4′-tert-butyl-4-[4-(diphenylmethoxy)piperidino]butyrophenone]", "values": [
      {"measurement": "excreted in the urine", "setting": "[1]", "value": 66, "unit": "%"},
      {"measurement": "solubility in water", "value": "not very soluble in water"}
    ]}
  ]
}
